# What was measured:
# ferrous RufO = experiment: Stopped-flow transient kinetics of O2 and •NO binding to ferrous RufO; settings: for association rate constant k1: 3.3 μM ferrous RufO; for association rate constant k1 / dissociation rate constant k2 (y-intercept): pH 8.0, linear fit
# Experimental: 5 Transient kinetics of ferrous RufO binding to O2 and ^•NO. Spectral changes following the rapid mixing of 3.3 μM ferrous RufO bound to MRYLH with (A) 18 μM O2 and (C) 70 μM ^•NO over 0.2 s. The black-to-red spectral transitions represent the formation of (A) a ferric-superoxo intermediate and (C) a ferrous-nitrosyl complex. Insets show the time-dependent absorbance changes at 438 nm (the most pronounced shift), fitted using single exponential equations to determine rate constants (red trace). Dependence of rate constant as a function of gas concentration on (B) O2 and (D) ^•NO binding to ferrous RufO alone (blue) and peptide-bound RufO (red). Second-order rate constants were determined through linear fitting. TEXT PRINTED IN THE PICTURE: (A) + O2: kobs = 74.3 s^-1 | (B) RufO alone: k1 = 3.55 μM^-1 s^-1 | (B) peptide-bound: k1 = 3.83 μM^-1 s^-1 | (C) + •NO: kobs = 107.4 s^-1 | (D) RufO alone: k1 = 4.12 μM^-1 s^-1 | (D) peptide-bound: k1 = 2.35 μM^-1 s^-1
# Stopped-flow spectroscopic data were collected using an Applied Photophysics SX20 stopped-flow system equipped with a photodiode array detector. The system was maintained in an anaerobic chamber (O2 < 1 ppm) and all sample preparation was done anaerobically. Measurements were performed at 4 °C. All samples were prepared in a buffer containing 50 mM Tris-HCl and 100 mM NaCl, pH 8.0. RufO was prereduced with a minimal amount of sodium dithionite. The final mixed concentrations of RufO and MRYLH (where applicable) were 3.3 and 24 μM, respectively. Solutions of varying O2 concentrations were prepared by diluting air-saturated buffer with anaerobic buffer. The concentrations of O2 in the air-saturated buffer were measured with an Oxygraph+ oxygen electrode (Hansatech). To generate ^•NO-containing solutions, 0.5 mM DEA NONOate (≥98%, Cayman Chemical) was incubated in anaerobic buffer for 4 h to ensure complete ^•NO release. The ^•NO concentrations were quantified based on a hemoglobin assay, and further dilutions were made with anaerobic buffer immediately prior to mixing. Experimental data were analyzed by the ProK software package from Applied Photophysics. The second-order rate constants were obtained from linear fitting, with the resulting equations: y = 3.55x + 54.4 for the mixing of RufO with O2, y = 3.83x + 6.5 for the ES complex with O2, y = 4.12x −158.0 for RufO with ^•NO, and y = 2.35x – 58.9 for the ES complex with ^•NO.
# Figure S9. Transient kinetics of ferrous RufO alone binding to O2 and •NO Spectral changes following the rapid mixing of 3.3 μM ferrous RufO with (A) 18 μM O 2 and […] superoxo intermediate and (B) a ferrous-nitrosyl complex. Insets show the time-dependent absorbance changes at 438 nm (the most pronounced shift), fitted using first-order exponential equations to determine rate constants (red trace).
# (1 picture or pasted object on this page, not shown here)
# RufO [1] = target: T1, RufO (Streptomyces atratus, UniProt A0A224AU14); experiment: LC-MS of single-turnover RufO reaction with sequential O2 and •NO addition; format: biochemical; settings: 100 μM pre-reduced RufO, 150 μM MRYLH, 150 μM O2 30 s then 150 μM •NO 30 s, 50 mM ammonium acetate pH 7.5
# T1 construct: made in house
# T1 sequence (A0A224AU14 1-394): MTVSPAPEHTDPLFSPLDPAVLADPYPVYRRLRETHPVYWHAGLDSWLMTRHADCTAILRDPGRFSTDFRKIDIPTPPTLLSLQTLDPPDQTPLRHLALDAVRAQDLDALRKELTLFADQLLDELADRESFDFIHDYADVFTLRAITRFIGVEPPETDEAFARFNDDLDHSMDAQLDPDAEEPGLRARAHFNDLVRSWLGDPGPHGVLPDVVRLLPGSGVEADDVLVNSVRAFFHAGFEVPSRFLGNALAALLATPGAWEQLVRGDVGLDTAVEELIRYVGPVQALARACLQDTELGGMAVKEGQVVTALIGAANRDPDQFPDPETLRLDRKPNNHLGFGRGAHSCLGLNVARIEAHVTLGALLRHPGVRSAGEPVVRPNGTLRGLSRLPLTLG
# TxtE = target: T2, TxtE (Streptomyces scabiei, UniProt C9ZDC6); settings: Trp-bound TxtE; reported, ref number not given; cited from earlier work
# T2 sequence (C9ZDC6 1-406): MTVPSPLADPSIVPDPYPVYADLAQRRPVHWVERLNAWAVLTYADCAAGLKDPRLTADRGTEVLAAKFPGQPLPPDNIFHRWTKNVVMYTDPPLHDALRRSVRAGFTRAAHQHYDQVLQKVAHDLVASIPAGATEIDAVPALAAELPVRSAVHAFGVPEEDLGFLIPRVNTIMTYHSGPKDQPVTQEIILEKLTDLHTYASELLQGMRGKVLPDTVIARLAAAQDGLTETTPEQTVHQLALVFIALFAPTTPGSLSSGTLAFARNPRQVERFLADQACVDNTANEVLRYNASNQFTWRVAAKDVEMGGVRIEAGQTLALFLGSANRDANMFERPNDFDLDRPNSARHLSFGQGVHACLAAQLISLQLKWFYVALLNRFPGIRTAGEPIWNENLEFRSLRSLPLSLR
# RufO [2] = target: T1, RufO; settings: spectroscopic and structural analyses; ref number not given; cited from earlier work
# Description: Recent studies on a nitrating CYP have showcased collective efforts to uncover a novel enzymatic function in RiPP biosynthesis. Nitration is a biologically significant transformation that modifies the function, stability, and reactivity of proteins and other biomolecules. − While most biological nitration processes are known to proceed through less specific reactions involving peroxynitrite and other nitrative reactive species, , biocatalytic nitration is rare and underexplored. The first example was reported for TxtE in thaxtomin biosynthesis, which catalyzes the direct nitration of L-trypto ...
# RufO [3] = target: T1, RufO; settings: recent report, ref number not given; cited from earlier work
# Description: The integration of spectroscopic and structural characterization allows us to elucidate the molecular mechanism of substrate recognition and nitration activity in RufO. Our findings provide important insights into the catalytic process, enabling us to propose a mechanistic model for RufO-mediated peptide nitration (Figure S13). In its resting state, RufO adopts a six-coordinate, low-spin heme configuration with a water molecule as the distal ligand. While its heme environment is spectroscopically similar to that of typical CYPs, the flexibility of the B/C loop and the F and G helices contribut ...
# [4] = peptide-bound ferrous RufO + O2, 4 °C, pH 8.0
compound,measurement,setting,value
O=O [O2],kobs,"ferrous RufO; MRYLH-bound ferrous RufO 3.3 μM, 18 μM O2, 438 nm, single exponential, 4 °C",74.3 s⁻¹
same,association rate constant k1,"ferrous RufO; MRYLH-bound, 24 μM MRYLH, 4 °C",3.83 μM^–1 s^–1
same,association rate constant k1,"ferrous RufO; RufO alone, 4 °C",3.55 μM^–1 s^–1
same,dissociation rate constant k2 (y-intercept),"ferrous RufO; RufO alone, 4 °C",54.4 s^–1
same,O2 binding faster than •NO (times),"ferrous RufO; in the presence of the peptide, ratio of k1",1.6 times
same,dissociation rate constant k2 (y-intercept),"ferrous RufO; peptide-bound RufO, 4 °C",6.5 s^–1
same,ferric-superoxo intermediate stable for up to,ferrous RufO; [4],up to 100 s
same,time of peak of ferric-superoxo intermediate,ferrous RufO; [4],approximately 0.05 s
same,"product yield, O2-first vs reverse order",RufO [1],approximately double the product yield
same,k1 of O2 binding,TxtE,4.43 μM^–1 s^–1
"N[C@@H](Cc1ccc(O)cc1)C(=O)O [Tyr, L-tyrosine]","binding to RufO, in words",RufO [2],unable to bind
MRFLH,"nitration by RufO, in words",RufO [3],RufO cannot nitrate
